Where two headings read alike, the source gives them in different places. *1 amine or outer side, *2 acyl side, *3 side chain or, on linkers, in order; H or OH if unused. Where a SMILES comes first, the peptide text is derived from it. Bridges are numbered along the chain shown (N, C = ends). NH(CH2)4NH = C(CCN[*:2])CN[*:1]
What was measured:
[1] = system: BIG3 phosphorylation; test: BIG3 phosphorylation (Ser305, Ser1208) in SK-BR-3 and KPL-4 cells, immunoblot; format: cell-based, human; details: SK-BR-3 and KPL-4, 30 minutes; 10 μM H-89, 100 μg/mL trastuzumab, 10 nM lapatinib
[2] = molecular target: T1, PKA (Homo sapiens, UniProt P17612); test: PKA activity of BIG3 immunoprecipitates from SK-BR-3 cells; format: cell-based
T1 construct: endogenous in cells; host or cells: SK-BR-3

[3] = system: PP1Cα; test: PP1Cα activity of BIG3 immunoprecipitates from SK-BR-3 cells; format: cell-based, human; details: SK-BR-3, 24 hours; 10 μM H-89, 100 μg/mL trastuzumab, 10 nM lapatinib
[4] = system: MCF-7 cells; format: cell-based, human; details: for inhibition rate on estrogen-dependent cell growth: 96 h
[5] = molecular target: T2, chymotrypsin (Bos taurus, UniProt P00766); test: Chymotrypsin resistance (HPLC); format: in vitro ADME; details: 1 μg chymotrypsin, 5 μg peptide, 37° C., 24 hours
T2 construct: purchased Sigma C7761
Experimental: The chromatograms for double stapled ERAP No. 45 (A) and double stapled ERAP No. 46 (B), when a double stapled ERAP was reacted with chymotrypsin at 37° C. for 24 hours, are shown. In the experiment, the double stapled ERAP-chymotrypsin reaction solutions were subjected to high performance liquid chromatography (reverse-phase column, 0.3 mL/min flow rate, gradient elution (solution A: 0.1% trifluoroacetic acid; solution B: 0.1% trifluoroacetic acid/acetonitrile, A/B=90/10 (0-20 min) to 40/60 (20-80 min))), and detection was carried out by UV at 210 nm.
Chymotrypsin resistance was analyzed by adding 1 μg of chymotrypsin (#C7761, Sigma) and 5 μg of double stapled ERAP in a buffer (50 mM Tris-HCl; pH 8.0, 10 mM CaCl2), allowing this to react at 37° C. for 24 hours, and then subjecting the whole amount to high-performance liquid chromatography (HPLC). For the HPLC, a reverse-phase column (Inertsil Peptides C18 250×3.0 mm I.D.; GL Science, Tokyo, Japan) was used, gradient elution was performed using Solution A (0.1% trifluoroacetic acid) and Solution B (0.1% trifluoroacetic acid/acetonitrile) (A/B=90/10 (0-20 min), 90/10-40/60 (20-80 min)) at a flow rate of 0.3 mL/min, and a chromatogram for each double stapled ERAP was obtained by UV detection at 210 nm.

[6] = system: MDA-MB-231; format: cell-based, human; details: 96 h
Experimental: (§1) For the single stERAP and double stERAP #46, peptides were added at a total of eleven concentrations prepared by three-fold serial dilution starting from 20 μM. For the double stERAP #45, peptides were added at a total of eight concentrations prepared by two-fold serial dilation starting from 50 μM. The number of viable cells were measured 96 hours after the peptide addition, and relative values thereof were calculated based on the negative control cells without peptide addition and plotted. Experiments using double stERAP #45 on the SW982 cell line were not carried out.
(§2) MDA-MB-231 cells and SW982 cells were cultured using Leibovitz's L-15 medium (Thermo Fisher Scientific) at 37° C. without CO2 concentration control. All media were used by supplementing 10% FBS (Thermo Fisher Scientific) and a 1% antibiotic/antimycotic solution (Wako Pure Chemical, Osaka, Japan).
(§3) SK-BR-3 cells, BT-20 cells, and MDA-MB-231 cells were seeded into 48-well plates at 1×10^4 cells/200 μL in each well, and SW982 cells were seeded into 48-well plates at 0.5×10^4 cells/200 μL in each well. 48 hours later, the medium in each well was exchanged to a medium supplemented with a peptide (single stERAP and double stERAP #46: three-fold serial dilution from 20 μM, double stERAP #45: two-fold serial dilution starting from 50 μM), and after culturing for another 96 hours, the level of cell growth was measured using the Cell Counting Kit-8 (Dojindo, Kumamoto, Japan). Data were obtained from three independent experiments, a graph (mean±standard deviation) was produced using a graphing and data analyzing software SigmaPlot (Systat Software, San Jose, Calif., USA), and the 50% inhibition concentration (IC50) of the peptide against cell growth was calculated.

[7] = system: SK-BR-3; format: cell-based, human; details: 96 h
Experimental: as §1, §2, §3

[8] = system: BT-20; format: cell-based, human; details: 96 h
Experimental: as §1, §2, §3

[9] = molecular target: T3, BIG3-PHB2 interaction (Homo sapiens, UniProt Q99623); test: Inhibition of BIG3-PHB2 interaction in MCF-7 cells (immunoprecipitation, Western blotting); format: cell-based; details: MCF7, 96 hours, 10 nM estrogen, read-out: inhibition rate of BIG3-PHB2 binding
T3 construct: endogenous in cells; host or cells: MCF-7
T3 sequence (Q99623 2-299 limits assumed): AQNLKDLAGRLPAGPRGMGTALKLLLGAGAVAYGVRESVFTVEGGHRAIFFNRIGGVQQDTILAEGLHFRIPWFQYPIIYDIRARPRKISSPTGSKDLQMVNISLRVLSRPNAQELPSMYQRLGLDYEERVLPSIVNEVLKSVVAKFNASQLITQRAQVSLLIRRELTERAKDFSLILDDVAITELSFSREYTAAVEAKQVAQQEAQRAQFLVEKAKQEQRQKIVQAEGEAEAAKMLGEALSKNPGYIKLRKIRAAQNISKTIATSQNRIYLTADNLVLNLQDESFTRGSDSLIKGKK
Experimental: (A, B) Inhibitory effect of double stapled ERAP No. 46 on BIG3-PHB2 interaction in MCF-7 cells was evaluated by Western blotting. […] Then, the cells were lysed, immunoprecipitation was performed using an anti-BIG3 antibody, and immunoblot analyses were performed using the antibodies indicated in the drawing. The binding inhibition rates are expressed as proportions to the band area for PHB2 in untreated cells which is set as 100.
For immunoblot analyses, after performing SDS-PAGE, the membranes blotted with proteins were blocked with 4% BlockAce solution (Dainippon Pharmaceutical, Osaka, Japan) for 3 hours and then incubated to react for 12 hours with antibodies against BIG3 (1:1,000) and PHB2 (1:1,000) (Abcam, Cambridge, UK). After allowing interaction with HRP-labeled secondary antibodies (anti-rat IgG-HRP for BIG3, 1:5,000; and anti-rabbit IgG-HRP for PHB2, 1:1,000) (Santa Cruz Biotechnology, Dallas, Tex., USA) for 1 hour, the blots were developed with the Enhanced Chemiluminescence (ECL) system (GE Healthcare, Buckinghamshire, UK) and scanned using the Image Reader LAS-3000 mini (Fujifilm, Tokyo, Japan). […]

[10] = system: SW982; format: cell-based, human; details: 96 h
Experimental: as §1, §2, §3

[11] = system: PKCα; test: PKCα activity of PKCα immunoprecipitates from SK-BR-3 cells; format: cell-based, human; details: SK-BR-3, 10 nM lapatinib in the presence of stERAP, 24 hours
Experimental: (A) Immunoblots are shown which indicate that PHB2 (Ser39) is phosphorylated in a PKCα-dependent manner in a HER2-positive breast cancer cell line. SK-BR-3 cells in which PKCα expression was suppressed by the siRNA method were treated for 24 hours with 1 μM stERAP, then cell lysate thereof was subjected to immunoprecipitation using an anti-PHB2 antibody, and immunoblot analyses were performed using the antibodies shown in the drawing. (B) PKCα activity by EGFR signaling in SK-BR-3 cells is shown. SK-BR-3 cells were treated for 24 hours with 1 μM stERAP, and with 10 nM lapatinib in the presence of stERAP, cell lysates thereof were subjected to immunoprecipitation using an anti-PKCα antibody, and PKCα activities were calculated using CREBtide as a substrate. Data represent the mean±standard error of three independent experiments.
The activities of protein kinase A (PKA) and protein kinase C alpha (PKCα) were measured by reacting the immunoprecipitates of BIG3 and PKCα with a synthetic substrate CREBtide ([…]) and 0.5 mM ATP in a kinase buffer (25 mM Hepes, pH 7.2, 25 mM MgCl2, 5 mM EDTA, 5 mM EGTA, 0.25 mM DTT) at 30° C. for 30 minutes, and by using an ADP-Glo kinase assay Kit (Promega, Fitchburg, Wis., USA).

[12] = system: PHB2 (Ser39) phosphorylation; test: PHB2 (Ser39) phosphorylation in SK-BR-3 cells, immunoblot; format: cell-based, human; details: SK-BR-3, presence of 1 μM stERAP; 100 μg/mL trastuzumab, 10 nM lapatinib
[13] = system: HER2-HER3 interaction; test: HER2-HER3 interaction, immunoprecipitation with anti-HER2 antibody; format: cell-based, human; details: SK-BR-3, 2 μM AZ3146 and 1 μM stERAP, 24 hours
[14] = system: HER2-Shc interaction; test: HER2-Shc interaction, immunoprecipitation with anti-HER2 antibody; format: cell-based, human; details: SK-BR-3, 2 μM AZ3146 and 1 μM stERAP, 24 hours

Compound | IC50 [4] [nM] | degradation by chymotrypsin treatment (chromatogram) [5] | IC50 [6] [nM] | IC50 [7] [nM] | IC50 [8] [nM] | suppression of BIG3 phosphorylation (Ser305 and Ser1208) [1] | inhibition rate for PP1Cα activity [3] | further results
O=S(=O)(NCCNC/C=C/c1ccc(Br)cc1)c1cccc2cnccc12 [H-89] |  |  |  |  |  | nearly completely suppressed | 96% | inhibition rate for PKA activity ([2]; SK-BR-3, 24 hours, 10 μM H-89, 100 μg/mL trastuzumab, 10 nM lapatinib): 100%
CSCC[C@H](NC(=O)[C@H](CCC(N)=O)NC(C)=O)C(=O)N[C@H]1CCC(=O)NCCCCNC(=O)CC[C@@H](C(=O)N[C@H]2CCC(=O)NCCCCNC(=O)CC[C@@H](C(=O)N[C@@H](CCCNC(=N)N)C(N)=O)NC(=O)[C@H](CCCNC(=N)N)NC(=O)[C@H](CC(C)C)NC(=O)[C@H](CCC(N)=O)NC2=O)NC(=O)[C@H](CC(C)C)NC(=O)[C@H](CC(=O)O)NC(=O)[C@H](CO)NC1=O [double stapled ERAP No. 45] (Ac-QMESDLEEQLRER-NH2; linker 3-7, 8-12 via NH(CH2)4NH) | 2320 | several degradation products | 23700 | 2800 | 8600 |  |  | inhibition rate on estrogen-dependent cell growth ([4]; 1 μM): 21%
CSCC[C@H](NC(=O)[C@H](CCC(N)=O)NC(C)=O)C(=O)N[C@H]1CCC(=O)NCCCCNC(=O)CC[C@@H](C(=O)N[C@@H](CC(C)C)C(=O)N[C@@H](CCC(N)=O)C(=O)N[C@H]2CCC(=O)NCCCCNC(=O)CC[C@@H](C(N)=O)NC(=O)[C@H](CCCNC(=N)N)NC(=O)[C@H](CCC(N)=O)NC(=O)[C@H](CCCNC(=N)N)NC2=O)NC(=O)[C@H](CC(C)C)NC(=O)[C@H](CC(=O)O)NC(=O)[C@H](CO)NC1=O [double stapled ERAP No. 46] (Ac-QMESDLELQERQRE-NH2; linker 3-7, 10-14 via NH(CH2)4NH) | 430 | hardly showed its degradation | 143 | 20 | 74 |  |  | inhibition rate on estrogen-dependent cell growth ([4]; 10 μM): 91%; inhibition at 1 µM ([9]; 1 μM): 60%; inhibition at 10 µM ([9]; 10 μM): 95%; IC50 [10]: 26 nM
CS(=O)(=O)CCNCc1ccc(-c2ccc3ncnc(Nc4ccc(OCc5cccc(F)c5)c(Cl)c4)c3c2)o1 [lapatinib] |  |  |  |  |  | not so involved in the suppression of BIG3 phosphorylation | about 15% | PKCα activity inhibition [11]: approximately 80%; inhibition at 0.01 µM ([2]; SK-BR-3, read-out: inhibition rate for PKA activity): ~15%; decrease of PHB2 (Ser39) phosphorylation [12]: nearly completely suppressed
AZ3146 |  |  |  |  |  |  |  | effect on stERAP inhibition of HER2-HER3 interaction [13]: nearly completely canceled the inhibitory effects; effect on stERAP inhibition of HER2-Shc interaction [14]: nearly completely canceled the inhibitory effects
